Experimental data reported in article PMC10369045, “Radiolabelling of peptides with tetrazine ligation based on the inverse electron-demand Diels–Alder reaction: rapid, catalyst-free and mild conversion of 1,4-dihydropyridazines to pyridazines” (RSC Advances, 2023).

Experiments:
[1] = Reversed-phase HPLC-RAD/DAD retention of DHP and pyridazine forms; type: physicochemical; conditions: HPLC-RAD/DAD and HPLC-RAD/UV, Kinetex 5 µm C18 250 × 10.0 mm, 20-50% B in 20 min, H2O/ACN + 0.1% TFA, 3 mL/min, room temperature; elution order used as indication of lipophilicity
Experimental: The HPLC instruments were equipped with either two channel UV/VIS or a PDA detector, and a NaI(Tl) scintillation detector for detection of radioactivity.
Table S2. The gradient used for HPLC-RAD/DAD studies.
Flow rate: 3 mL/min at room temperature
Column: Phenomenex Kinetex® 5 µm C18 100 Å, LC Column 250 × 10.0 mm
Eluents: (A) H2O+0.1% Trifluoroacetic acid and (B) ACN +0.1% Trifluoroacetic acid

[2] = Incubation tests of IEDDA cycloaddition product (conversion of DHPs to oxidized pyridazine form); type: physicochemical; conditions: for Conversion to oxidized form of the peptide cycloadduct: incubation in ≥95% (v/v) water at 60 °C; for Conversion to oxidized form of the peptide cycloadduct / [18F]AmBF3(ox.)-TOC (%): radio-HPLC
Experimental: Protic solvents in acidic reaction conditions at various temperatures were used in-order to investigate the conditions that might influence the formation of the oxidized form from DHPs or that might slow down the process. […] The (radio)peaks of [^19F/^18F]6(a, b) (peptide 6, tR = 20 min) were successfully converted (≥97%) to the more polar compound (peptide 6, tR = 17 min) by incubation in increasing amounts of water in acetonitrile (Fig. 2C). When incubating in 75% (v/v) ACN in water for 10 min at 60 °C, the conversion to polar (peptide 6, tR = 17 min) compound was 59% (ESI Table S7 ^†).
Table S7. Incubation tests of IEDDA cycloaddition product.
Peptide Peptide Solvent Vol. pH Temp. Time [18F] AmBF3 (ox.)-
(nmol) (v/v-%) (µL) (°C) (min) TOC (%)

[3] = Lipophilicity (LogD7.4), shake-flask method
Experimental: Lipophilicity. Shake-flask method was used for determining the lipophilicities (LogD7.4) of the radiolabeled
compounds. LogD7.4 was determined as a distribution of radioactivity between 0.01 M PBS and octanol. The
purified radiolabeled compound (25 µL) was added to a 1:1 mixture of 1-octanol and 0.02 M PBS (pH 7.4) in
a 1.5 mL microtube. The mixture was shaken mechanically at 500 rpm for 10 minutes, centrifuged (1000 × g,
5 minutes), and the layers were separated, followed by pipetting a sample (500 µL) from each layer into a pre-
weighed polypropylene tube. The radioactivity in the sample was measured with a Wizard gamma counter.
The distribution of the radiolabeled compound between the octanol and the PBS layers was calculated

[4] = test system: SSTR2-expressing rat pancreatic adenocarcinoma AR42J cells; assay: Cell uptake assay in AR42J cells; type: cell-based; conditions: oxidized pyridazine form, gamma counting
Experimental: Aoct=activity in the octanol phase
APBS=activity in the PBS phase
Cell-uptake assay in AR42J
The cells were cultured in Gibco™ F-12K Medium
1×PBS was prepared from Phosphate Buffered Saline
Tablets (Fisher Bioreagents, Hampton, USA) in water. 1.0 M Sodium hydroxide was purchased from VWR […]
Chemicals. […] AR42J cells (1×106 per […]
well) were seeded overnight on 6-well plates.
Another set of cells were co-incubated in […]
microtube (=free fraction). […]
washing the cells with cold 1×PBS. […] 1 M NaOH […]
microtube (=internalized fraction).

[5] = test system: tumour; conditions: ex vivo biodistribution and PET/CT imaging; tumour uptake efficiently blocked; ref earlier cohort by us; cited from earlier work
Experimental: In this study, we report a rapid, mild, and facile method for converting dihydropyridazine cycloaddition products to pyridazine during IEDDA, in only 10 minutes.

C[C@@H](O)[C@@H]1NC(=O)[C@H](CCCCN)NC(=O)[C@@H](Cc2c[nH]c3ccccc23)NC(=O)[C@H](Cc2ccc(O)cc2)NC(=O)[C@@H](NC(=O)[C@@H](Cc2ccccc2)NC(=O)CCOCCOCCOCCOCCON=Cc2ccc(CNC(=O)OC3CCCc4cnnc(-c5ccc(CC(=O)NCC[N+](C)(C)C[B-](F)(F)F)cc5)c4CC3)cc2)CSSC[C@@H](C(=O)N[C@H](CO)[C@@H](C)O)NC1=O (stereo partly shown) [[18F]5 (ox.), AmBF3-PEG4-TOC]
Retention time [1]: 18.7 min
Conversion to oxidized form of the peptide cycloadduct [2]: full conversion
logD ([3]; pH 7.4): 0.58 ± 0.06

C[C@@H](O)[C@@H]1NC(=O)[C@H](CCCCN)NC(=O)[C@@H](Cc2c[nH]c3ccccc23)NC(=O)[C@H](Cc2ccc(O)cc2)NC(=O)[C@@H](NC(=O)[C@@H](Cc2ccccc2)NC(=O)CCOCCOCCOCCOCCON=Cc2ccc(C(=O)NCCOCCOCCOCCNC(=O)OC3CCCC4=C(c5ccc(CC(=O)NCC[N+](C)(C)C[B-](F)(F)F)cc5)NN=CC4CC3)cc2)CSSC[C@@H](C(=O)N[C@H](CO)[C@@H](C)O)NC1=O (stereo partly shown) [[18F]6 (DHP, a)]
Retention time [1]: 20.6 min

C[C@@H](O)[C@@H]1NC(=O)[C@H](CCCCN)NC(=O)[C@@H](Cc2c[nH]c3ccccc23)NC(=O)[C@H](Cc2ccc(O)cc2)NC(=O)[C@@H](NC(=O)[C@@H](Cc2ccccc2)NC(=O)CCOCCOCCOCCOCCON=Cc2ccc(C(=O)NCCOCCOCCOCCNC(=O)OC3CCCC4=C(c5ccc(CC(=O)NCC[N+](C)(C)C[B-](F)(F)F)cc5)NN=CC4CC3)cc2)CSSC[C@@H](C(=O)N[C@H](CO)[C@@H](C)O)NC1=O (stereo partly shown) [[18F]6 (DHP, b)]
Retention time [1]: 20.2 min

C[C@@H](O)[C@@H]1NC(=O)[C@H](CCCCN)NC(=O)[C@@H](Cc2c[nH]c3ccccc23)NC(=O)[C@H](Cc2ccc(O)cc2)NC(=O)[C@@H](NC(=O)[C@@H](Cc2ccccc2)NC(=O)CCOCCOCCOCCOCCON=Cc2ccc(C(=O)NCCOCCOCCOCCNC(=O)OC3CCCc4cnnc(-c5ccc(CC(=O)NCC[N+](C)(C)C[B-](F)(F)F)cc5)c4CC3)cc2)CSSC[C@@H](C(=O)N[C@H](CO)[C@@H](C)O)NC1=O (stereo partly shown) [[18F]6, AmBF3-PEG7-TOC]
[18F]AmBF3(ox.)-TOC (%) ([2]; 2 nmol peptide, ACN:H2O (25:75), 60 µL, 60 °C, 15 min, n = 1): 84%
[18F]AmBF3(ox.)-TOC (%) ([2]; 2.5 nmol peptide, 0.15 mM citrate buffer, 180 µL, pH 3.75, 60 °C, 10 min): 9%
[18F]AmBF3(ox.)-TOC (%) ([2]; 2.5 nmol peptide, ACN:H2O (25:75), 20 µL, 60 °C, 10 min): 89%
[18F]AmBF3(ox.)-TOC (%) ([2]; 2.5 nmol peptide, ACN:H2O (40:60), 25 µL, 60 °C, 15 min, n = 1): 77%
[18F]AmBF3(ox.)-TOC (%) ([2]; 2.5 nmol peptide, ACN:H2O (75:25), 20 µL, 60 °C, 10 min, n = 1): 59%
[18F]AmBF3(ox.)-TOC (%) ([2]; 5 nmol peptide, 0.01 mM citrate buffer, 180 µL, pH 4, 37 °C, 10 min): 4%
[18F]AmBF3(ox.)-TOC (%) ([2]; 5 nmol peptide, 0.15 mM citrate buffer, 180 µL, pH 3.75, 37 °C, 10 min): 5%
[18F]AmBF3(ox.)-TOC (%) ([2]; 5 nmol peptide, 10 x PBS, 180 µL, pH 6.8, 37 °C, 10 min): 5%
[18F]AmBF3(ox.)-TOC (%) ([2]; 7.5 nmol peptide, ACN:H2O (13:87), 150 µL, 60 °C, 10 min): 25%
[18F]AmBF3(ox.)-TOC (%) ([2]; 7.5 nmol peptide, ACN:H2O (25:75), 20 µL, 40 °C, 20 min): 86%
[18F]AmBF3(ox.)-TOC (%) ([2]; 2-50 nmol peptide, ACN:H2O (≥95% H2O), 20-200 µL, 60 °C, 10 min, n = 1): 100%
Conversion of DHP peak cluster (tR ≈ 20 min) to single oxidized peak (tR = 17 min) at room temperature ([2]; collected HPLC fraction left at room temperature for 18 hours (overnight), HPLC-DAD and UHPLC-HRMS): total conversion
Conversion to oxidized form of the peptide cycloadduct [2]: full conversion
LogD7.4 ([3]; shake-flask 1-octanol/PBS (pH 7.4) 1:1, 25 µL purified radiolabelled compound, shaken 500 rpm 10 min, centrifuged 1000 × g 5 min, gamma counter, mean ± SD, n = 3-4, HPLC-separated fractions (DHP a 77%, DHP b 88% pure), listed as [^18F]6(ox.)): −0.73 ± 0.12
Cell uptake in AR42J cells (specificity, blocking with octreotide) ([4]; 1 million AR42J cells per well, 37 °C, triplicates per timepoint, blocked by co-incubation with excess non-radiolabelled octreotide): specific uptake
Internalization by AR42J cells ([4]; internalized fraction after glycine buffer (pH 2.8) wash and 1 M NaOH lysis): internalized by the cells
Tumour visualization in vivo [5]: able to visualize the tumour in vivo
